Experiments:
LPS-stimulated PBMCs = assay: TNF-α production in LPS-stimulated PBMCs; type: cell-based; details: PBMC; human PBMCs, 25 μM compound preincubated 1 hour, LPS stimulation, 24 hours
Experimental: (§1) Effect of Candidate Compounds on Cytokine Production from Human Cells: Mono-Mac-6 Cells: The cellular efficacy of the inhibitors is determined using the human monocytic cell line, Mono-Mac-6 cells (MM6 cells) as it has been shown that MIF induces the production of inflammatory mediators, including tumor necrosis factor-α (TNF-α) interleukin (IL)-1β, IL-6, IL-8, interferon-γ (IFN-γ) and prostaglandin E2 (PGE2) in these cells (Schwartz et al., 2009). Recombinant human MIF (rhMIF) will be purchased from R&D Systems (Minneapolis, Minn.) or generated in house. To induce the production of inflammatory mediators, MM6 cells will be plated at a final concentration of 5×10^5 cells/ml in RPMI 1640 medium containing 1% heat-inactivated low-pyrogen fetal bovine serum, 2 mM GlutaMAX-1,1% non-essential amino acids, 1% sodium pyruvate, 100 units/ml penicillin G and 100 μg/ml streptomycin (Gibco BRL Life Technologies). Cells will be stimulated with 100 ng/ml rhMIF with or without inhibitor for 20 h at 37° C. with 5% CO2. The supernatants were stored at −20° C. until they were assayed. The levels of inflammatory mediators will be determined using commercial ELISA kits from R&D Systems (Minneapolis, Minn.). Human Periperal Blood Mononuclear Cells (PBMC): Human whole blood is collected from healthy donors in sodium-heparinized tubes (BD Biosciences), and peripheral blood mononucleated cells (PBMC) are isolated by Ficoll separation. Cells are washed in Dulbecco's phosphate-buffered saline, resuspended in media (DMEM) containing 5% low endotoxin (<0.3 EU/ml) fetal Bovine Serum (FBS, GIBCO) and 10 units/ml penicillin/streptomycin, and plated at 5×10^5 cells/well in 96-well tissue culture plates. Lipopolysaccharide (LPS, E. coli Serotype 0111:B4, Sigma) or macrophage migration inhibitory factor are pre-incubated for 15 minutes with compounds dissolved in dimethyl sulfoxide (DMSO). The mixtures are then added to cells to yield final concentrations of 1% DMSO, 100 ng/ml LPS and 1 μg/ml MIF. Cells are incubated for overnight at 37° C., 5% CO2. TNF-α production is measured by ELISA (R&D Systems). Cytotoxicity is assessed using the MTT [3-(4,5-dimethylthiazol-2-yl)-2,5-diphenyl tetrazolium bromide assay. Human Rheumatoid Arthritis Synovial Fibroblast (RASF) Cell Line: RASF cells are derived from the inflamed synovium of a RA patient who was undergoing total knee replacement. Cells are cultured in Dulbecco's modified Eagle's medium with 15% FBS, 1% glutamine, and 1% penicillin/streptamycin (all from Gibco (Invitrogen), Gaithersburg, Md.). Experiments are performed with cells between passages 7 to 10, using trypsin with 0.25% ethylene diamine tetraacetic acid (EDTA)(Gibco) to detach cells. Interleukin 1 or macrophage migration inhibitory factor (MIF, GIBCO) are pre-incubated for 15 minutes with compounds dissolved in dimethyl sulfoxide (DMSO). The mixtures are then added to cells to yield final concentrations of 1% DMSO, 1 ng/ml Interleukin 1 or 1 μg/ml MIF. RASFs are incubated with or without stimuli at 37° C. for 20 h for induction of Interelukin 6. Interleukin 6 levels in culture supernatants are quantitated by ELISA. Representative MIF inhibitors were tested in the assay described above, specifically, human peripheral blood mononuclear cells [PBMCs] were isolated and stimulated with either LPS or rhMIF.

Native human MIF = molecular target: T1, Native human MIF (Homo sapiens, UniProt P14174); assay: MIF tautomerase activity assay with hydroxyphenyl pyruvic acid (HPP) substrate; type: biochemical; details: absorbance at 300 nm
T1 sequence (P14174 2-115 limits assumed): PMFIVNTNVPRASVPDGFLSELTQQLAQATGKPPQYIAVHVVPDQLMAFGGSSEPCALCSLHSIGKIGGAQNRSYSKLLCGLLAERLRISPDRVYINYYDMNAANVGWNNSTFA
Experimental: The ability of candidate compounds to inhibit this tautomerase activity are quantitated by using hydroxyphenyl pyruvic acid (HPP) as a substrate (Ouertatani-Sakouhi et al., 2010). The ability of compounds to inhibit the tautomerase activity can be quantitated by following the increase in absorbance due to the enzymatic formation of the HPP enol-borate complex at 300 nm in the absence and presence of a test compound. The IC50 value of compounds are determined by plotting the initial velocities determined at 300 nm as a function of a test compound's concentration. Assays are carried out in a 96 or 384 well plate format. Representative MIF inhibitors were tested in the assay described above and the results tabulated in Table 1 wherein “A” represents≦10 μM; “B” represents>10 μM and <100 μM; “C” represents>100 μM and ≦200 μM; and “D” represents>200 μM.

rhMIF-stimulated PBMCs [1] = assay: IL-6 production in rhMIF-stimulated PBMCs; type: cell-based; details: PBMC; human PBMCs, 25 μM compound preincubated 1 hour, rhMIF stimulation, 24 hours
Experimental: Effect of Candidate Compounds on Cytokine Production from Human Cells: Mono-Mac-6 Cells: The cellular efficacy of the inhibitors is determined using the human monocytic cell line, Mono-Mac-6 cells (MM6 cells) as it has been shown that MIF induces the production of inflammatory mediators, including tumor necrosis factor-α (TNF-α) interleukin (IL)-1β, IL-6, IL-8, interferon-γ (IFN-γ) and prostaglandin E2 (PGE2) in these cells (Schwartz et al., 2009). Recombinant human MIF (rhMIF) will be purchased from R&D Systems (Minneapolis, Minn.) or generated in house. To induce the production of inflammatory mediators, MM6 cells will be plated at a final concentration of 5×10^5 cells/ml in RPMI 1640 medium containing 1% heat-inactivated low-pyrogen fetal bovine serum, 2 mM GlutaMAX-1,1% non-essential amino acids, 1% sodium pyruvate, 100 units/ml penicillin G and 100 μg/ml streptomycin (Gibco BRL Life Technologies). Cells will be stimulated with 100 ng/ml rhMIF with or without inhibitor for 20 h at 37° C. with 5% CO2. The supernatants were stored at −20° C. until they were assayed. The levels of inflammatory mediators will be determined using commercial ELISA kits from R&D Systems (Minneapolis, Minn.). […] Cytotoxicity is assessed using the MTT [3-(4,5-dimethylthiazol-2-yl)-2,5-diphenyl tetrazolium bromide assay. […] Interleukin 6 levels in culture supernatants are quantitated by ELISA. […]

rhMIF-stimulated PBMCs [2] = assay: TNF-α production in rhMIF-stimulated PBMCs; type: cell-based; details: PBMC; human PBMCs, 25 μM compound preincubated 1 hour, rhMIF stimulation, 24 hours
Experimental: as §1, with “Interleukin 1 or macrophage migration inhibitory factor (MIF, GIBCO) are pre-incubated for 15 minutes with compounds dissolved in dimethyl sulfoxide (DMSO). The mixtures are then added to cells to yield final concentrations of 1% DMSO, 1 ng/ml Interleukin 1 or 1 μg/ml MIF. RASFs are incubated with or without stimuli at 37° C. for 20 h for induction of Interelukin 6.” left out, “Representative MIF inhibitors were tested in the assay described above, specifically, human peripheral blood mononuclear cells [PBMCs] were isolated and stimulated with either LPS or rhMIF.” left out

Cn1c(=O)c(C#N)c(NC2CCN(C(=O)c3cccs3)CC2)c2ccccc21 [XVII-1, 1-methyl-2-oxo-4-{[1-(thiophen-2-ylcarbonyl)piperidin-4-yl]amino}-1,2-dihydroquinoline-3-carbonitrile]
inhibition at 25 µM (LPS-stimulated PBMCs): 50 to 70%
IC50 (Native human MIF): ≤ 10 µM

N#Cc1c(N2CC(C(=O)c3cccs3)C2)c2ccccc2n(Cc2ccc(F)cc2)c1=O [XXXVIII]
IC50 (Native human MIF): 100 to 200 µM

N#Cc1c(NC2CN(S(=O)(=O)c3cccs3)C2)c2ccccc2n(Cc2ccc(F)cc2)c1=O [XXXIV, 1-(4-fluorobenzyl)-2-oxo-4-(1-(thiophen-2-ylsulfonyl)azetidin-3-ylamino)-1,2-dihydroquinoline-3-carbonitrile]
IC50 (Native human MIF): > 200 µM

Cn1c(=O)c(C#N)c(N2CCC(C(=O)NCc3ccncc3)CC2)c2ccccc21 [Compound XI, 1-(3-cyano-1-methyl-2-oxo-1,2-dihydroquinolin-4-yl)N-(pyridin-4-ylmethyl)piperidine-4-carboxamide]
IC50 (Native human MIF): > 200 µM

Cn1c(=O)c(C#N)c(N2CCC(C(=O)NCCO)CC2)c2ccccc21 [XIII]
IC50 (Native human MIF): > 200 µM

N#Cc1c(NC2CCN(C(=O)c3cccs3)CC2)c2ccccc2n(Cc2ccc(F)cc2)c1=O [XXXIII]
inhibition at 25 µM (LPS-stimulated PBMCs): 50 to 70%
IC50 (Native human MIF): ≤ 10 µM

Cn1c(=O)c(C#N)c(NC2CN(C(=O)c3cccs3)C2)c2ccccc21 [XXIV, 1-methyl-2-oxo-4-(1-(thiophene-2-carbonyl)azetidin-3-ylamino)-1,2-dihydroquinoline-3-carbonitrile]
inhibition at 25 µM (LPS-stimulated PBMCs): 50 to 70%
inhibition at 25 µM (rhMIF-stimulated PBMCs [1]): 10 to 50%
inhibition at 25 µM (rhMIF-stimulated PBMCs [2]): > 70%
IC50 (Native human MIF): ≤ 10 µM

Cn1c(=O)c(C#N)c(N2CC(C(=O)c3cccs3)C2)c2ccccc21 [Compound V]
inhibition at 25 µM (LPS-stimulated PBMCs): > 70%
IC50 (Native human MIF): 10 to 100 µM

Cn1c(=O)c(C#N)c(N2CCC(NC(=O)c3cccs3)CC2)c2ccccc21 [Compound VIII, N-[1-(3-cyano-1-methyl-2-oxo-1,2-dihydroquinolin-4-yl)piperidin-4-yl]thiophene-2-carboxamide]
inhibition at 25 µM (LPS-stimulated PBMCs): 10 to 50%
IC50 (Native human MIF): ≤ 10 µM

Cn1c(=O)c(C#N)c(N2CCC(C(=O)c3cccs3)CC2)c2ccccc21 [Compound IV, 1-methyl-2-oxo-4-[4-(thiophen-2-ylcarbonyl)piperidin-1-yl]-1,2-dihydroquinoline-3-carbonitrile]
inhibition at 25 µM (LPS-stimulated PBMCs): 10 to 50%
IC50 (Native human MIF): 100 to 200 µM

Cn1c(=O)c(C#N)c(N2CC(C(=O)NCc3ccncc3)C2)c2ccccc21 [Compound XIX, 1-(3-cyano-1-methyl-2-oxo-1,2-dihydroquinolin-4-yl)-N-(pyridin-4-ylmethyl)azetidine-3-carboxamide]
IC50 (Native human MIF): ≤ 10 µM

Cn1c(=O)c(C#N)c(N2CCC(C(=O)Nc3ccn[nH]3)CC2)c2ccccc21 [Compound XV]
IC50 (Native human MIF): ≤ 10 µM

N#Cc1c(NC2CN(C(=O)c3cncnc3)C2)c2ccccc2n(Cc2ccc(F)cc2)c1=O [XXXVII]
IC50 (Native human MIF): 10 to 100 µM

N#Cc1c(NC2CN(C(=O)c3ccncc3)C2)c2ccccc2n(Cc2ccc(F)cc2)c1=O [XXXV]
inhibition at 25 µM (rhMIF-stimulated PBMCs [2]): 10 to 50%
IC50 (Native human MIF): ≤ 10 µM

CN(C)C(=O)C1CCN(c2c(C#N)c(=O)n(C)c3ccccc23)CC1 [XII]
IC50 (Native human MIF): > 200 µM

N#Cc1c(N2CCC(C(=O)c3cccs3)CC2)c2ccccc2n(Cc2ccc(F)cc2)c1=O [Compound XXVIII, 1-(4-fluorobenzyl)-2-oxo-4-[4-(thiophen-2-ylcarbonyl)piperidin-1-yl]-1,2-dihydroquinoline-3-carbonitrile]
inhibition at 25 µM (LPS-stimulated PBMCs): 10 to 50%
IC50 (Native human MIF): 100 to 200 µM

Cn1c(=O)c(C#N)c(NC2CN(S(C)(=O)=O)C2)c2ccccc21 [Compound XXVI, 1-methyl-4-(1-(methylsulfonyl)azetidin-3-ylamino)-2-oxo-1,2-dihydroquinoline-3-carbonitrile]
IC50 (Native human MIF): 10 to 100 µM

Cn1c(=O)c(C#N)c(NC2CCN(S(C)(=O)=O)CC2)c2ccccc21 [Compound XXV]
IC50 (Native human MIF): > 200 µM

N#Cc1c(NC2CN(C(=O)c3cccs3)C2)c2ccccc2n(Cc2ccc(F)cc2)c1=O [XXXVI]
inhibition at 25 µM (rhMIF-stimulated PBMCs [2]): > 70%
IC50 (Native human MIF): ≤ 10 µM

Cn1c(=O)c(C#N)c(N2CCC(C(=O)Nc3nccs3)CC2)c2ccccc21 [XIV]
IC50 (Native human MIF): ≤ 10 µM

Cn1c(=O)c(C#N)c(N2CC(NC(=O)c3cccs3)C2)c2ccccc21 [Compound XXI, N-[1-(3-cyano-1-methyl-2-oxo-1,2-dihydroquinolin-4-yl)azetidin-3-yl]thiophene-2-carboxamide]
inhibition at 25 µM (LPS-stimulated PBMCs): ≤ 10%
inhibition at 25 µM (rhMIF-stimulated PBMCs [1]): 10 to 50%
inhibition at 25 µM (rhMIF-stimulated PBMCs [2]): 10 to 50%
IC50 (Native human MIF): 10 to 100 µM

Cn1c(=O)c(C#N)c(N2CCC(C(=O)O)CC2)c2ccccc21 [Compound X, 1-(3-cyano-1-methyl-2-oxo-1,2-dihydroquinolin-4-yl)piperidine-4-carboxylic acid]
IC50 (Native human MIF): > 200 µM
